According to patent US20050187181A1 (University of Maryland, priority 2004, published 2005):
Entries after “also recorded” stand apart in the source; their conditions may differ.

Legend:
Na/K ATPase = Na/K ATPase assay (86Rb uptake into red blood cells);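 as to all read-outs here: washed human red blood cells in K-free Ringer, test agent preincubated 20 min, then 86Rb uptake over 4 h at 37 °C counted as CPM per tube versus water control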; settings: for Na/K ATPase stimulatory activity of adenosine analogs and metabolites: 1 mM (FIG. 4); for effect of hormones on Na/K ATPase activity: doses of 10^-3 to 10^-9 M; for effect of adenosine-receptor blocker on stimulation of Na/K ATPase by inosine, adenosine, guanosine, deoxyadenosine or deoxyguanosine: FIG. 11; for effect of adenosine-receptor blocker on adenosine stimulation of Na/K ATPase: equimolar doses added together with adenosine (FIG. 5); for effect of pyrimidines on Na/K ATPase: doses ranging from 10^-3 to 10^-10 M; for effect of phosphate analogs and bases on Na/K ATPase: FIG. 10; for Na/K ATPase activity in erythrocytes: 6-thio inosine and 6-thio guanosine both 1 mM (FIG. 17); for effect of equilibrative nucleoside transport inhibitor on purine stimulation of Na/K ATPase: dipyridamole 1 mM, NBTI 10 μM, purine 1 mM (FIGS. 12 and 13); for relative effectiveness at stimulating Na/K ATPase: 10^-3 Molar (FIG. 8); for stimulation of Na/K ATPase: human red blood cells, dose response (FIG. 3b, FIG. 8); for stimulation of Na/K ATPase in the presence of ouabain: partial inhibition / sub maximal doses of ouabain (FIG. 9)
Protocol: Human red blood cells of any group-type were donated for research by the Blood Bank of the University Of Maryland, School of Medicine. Five ml of red cells are washed 3 times in 40 ml of Potassium free Ringers solution (141 mM NaCl, 1 mM H2NaPO4, 0.5 mM CaCl2, 1 mM MgSO4, 4.5 mM glucose, 10 mM HEPES pH7.4). 50 μl of washed red cells are added to 220 μl of potassium free Ringers solution. 30, 10, 3 or 1 μl of ultra-filtrate, HPLC (high performance liquid chromatography) fraction, or adenosine, inosine, guanosine, deoxyadenosine, deoxyguanosine, caffeine, aminophylline, dipyridamole, NBTI, 6thioinosine, 6thioguanosine, or EHNA (all in buffer) is added to the mixture and incubated for 20 min. 4 μCi of 86RbCl is added and incubated for 4 hrs at 37° C. The mixture is than washed three times with 4° C. Potassium free Ringers solution and the cells counted in a gamma counter (Packard, Cobra II). Na/K ATPase activity is expressed as the CPM (counts per minute) (CPM/tube*4 hrs). The effects of ultra-filtrate or HPLC fractions on ^86Rb uptake into red cells are compared to equal volumes of either water (control) or, in some cases, 0.01 mM Ouabain (maximal inhibition).

[1] = system: rats in severe hemorrhagic shock; settings: for effect on shock-elevated plasma K^+: 0.5 hr; for Plasma K^+ 0.5 hr after Resuscitation: mean ± SE, N = 7/group; for survival compared to saline and cytidine controls (Kaplan-Meier): single dose of 2.5 mM in saline, 8 rats/group, p<0.001
Protocol: Pentobarbital-anesthetized rats were subjected to severe hemorrhagic shock. Five groups of eight rats were resuscitated.
Plasma K^+ was measured from plasma taken before hemorrhage, before resuscitation and 0.5 hrs after resuscitation using a K^+ electrode (Jenco Electronics, Inc., San Diego, Calif.). Survival time between groups was compared by Kaplan-Meier survival Analysis.

[2] = system: rats in severe hemorrhagic shock; assay: Rat shock model for adenosine experiments (0.5 mM adenosine resuscitation); format: in vivo
Protocol: It was hypothesized that stimulation of Na/K ATPase with adenosine may reverse, alleviate or attenuate the effects of an endogenous inhibitor that appears during hemorrhagic shock. […] Blood samples (0.5 ml) were taken before hemorrhage, before resuscitation and 1 hr after resuscitation for measurement of plasma K and Na.
All animal procedures are conducted with the authorization of the Institutional Animal Care and Use Committee at the University of Maryland, School of Medicine. […] Blood samples (0.5 ml) were taken before hemorrhage, before resuscitation and 1 hr after resuscitation for measurement of plasma K and Na. Blood was centrifuged 3500 rpm for 2 min, plasma removed and K and Na was measured by flame photometer. Before and after resuscitation potassium (K) was analyzed by Newman Keul post hoc test after ANOVA.

## Nc1ncnc2c1ncn2[C@@H]1O[C@H](COP(=O)(O)OP(=O)(O)O)[C@@H](O)[C@H]1O [ADP]
Na/K ATPase
  Na/K ATPase stimulatory activity of adenosine analogs and metabolites: little or no Na/K ATPase stimulatory activity

## NC(=O)CC[C@@H]1NC(=O)[C@H](Cc2ccccc2)NC(=O)[C@H](Cc2ccc(O)cc2)NC(=O)[C@@H](N)CSSC[C@@H](C(=O)N2CCC[C@H]2C(=O)N[C@@H](CCCN=C(N)N)C(=O)NCC(N)=O)NC(=O)[C@H](CC(N)=O)NC1=O [vasopressin]
Na/K ATPase
  effect of hormones on Na/K ATPase activity: had no effect on Na/K ATPase activity

## Cn1c(=O)c2c(ncn2C)n(C)c1=O [caffeine]
Na/K ATPase
  effect of adenosine-receptor blocker on stimulation of Na/K ATPase by inosine, adenosine, guanosine, deoxyadenosine or deoxyguanosine: Neither of these adenosine-receptor blockers had a significant effect on stimulation of Na/K ATPase
  effect of adenosine-receptor blocker on adenosine stimulation of Na/K ATPase: did not affect the ability of adenosine to stimulate Na/K ATPase

## O=c1[nH]c(=O)c2[nH]cnc2[nH]1 [xanthine]
Na/K ATPase
  Na/K ATPase stimulatory activity of adenosine analogs and metabolites: little or no Na/K ATPase stimulatory activity

## Nc1ccn([C@@H]2O[C@H](CO)[C@@H](O)[C@H]2O)c(=O)n1 [cytidine, reference compound]
[1]; 2.5 mM in saline
  time to 100% mortality: 50 min
  time within which all resuscitated rats died: ≤ 52 min
  effect on shock-elevated plasma K^+: did not lower plasma K^+ concentration
  Plasma K^+ 0.5 hr after Resuscitation: 4.30 ± 0.35 mM
[1]; 2.5 mM in saline (FIG. 15)
  mean arterial blood pressure after resuscitation: mean arterial blood pressure fell earlier
Na/K ATPase
  effect of pyrimidines on Na/K ATPase: had no effect in the assay

## Nc1ncnc2c1ncn2[C@@H]1O[C@H](COP(=O)(O)O)[C@@H](O)[C@H]1O [AMP]
Na/K ATPase
  Na/K ATPase stimulatory activity of adenosine analogs and metabolites: little or no Na/K ATPase stimulatory activity

## Nc1ccn([C@H]2C[C@H](O)[C@@H](CO)O2)c(=O)n1 [deoxycytidine]
Na/K ATPase
  effect of pyrimidines on Na/K ATPase: had no effect in the assay

## Nc1ncnc2nc[nH]c12 [adenine]
Na/K ATPase
  Na/K ATPase stimulatory activity of adenosine analogs and metabolites: little or no Na/K ATPase stimulatory activity
  effect of phosphate analogs and bases on Na/K ATPase: None of the purine analogs significantly affected Na/K ATPase

## O=c1ccn([C@@H]2O[C@H](CO)[C@@H](O)[C@H]2O)c(=O)[nH]1 [uridine]
Na/K ATPase
  effect of pyrimidines on Na/K ATPase: had no effect in the assay

## OC[C@H]1O[C@@H](n2cnc3c(S)ncnc32)[C@H](O)[C@@H]1O [6-thioinosine]
Na/K ATPase
  Na/K ATPase activity in erythrocytes: stimulate Na/K ATPase

## C[C@@H]1O[C@@H](O[C@H]2C[C@@H](O)[C@]3(CO)[C@H]4[C@H](O)C[C@]5(C)[C@@H](C6=CC(=O)OC6)CC[C@]5(O)[C@@H]4CC[C@]3(O)C2)[C@H](O)[C@H](O)[C@H]1O [ouabain]
Na/K ATPase; FIG. 3a
  inhibition of Na/K ATPase stimulation by the rat plasma ultra-filtrate: inhibited in a dose-dependent manner
Na/K ATPase; FIG. 3c
  inhibition of Na/K ATPase stimulation by adenosine: inhibited in a dose dependent manner
Na/K ATPase; maximal doses of ouabain (FIG. 9)
  inhibition of Na/K ATPase stimulation by inosine, guanosine, deoxyadenosine and deoxyguanosine: inhibited by maximal doses of ouabain

## CCCCCC[C@@H]([C@@H](C)O)n1cnc2c(N)ncnc21 (racemic) [EHNA, erythrohydroxy3-nonyl-adenine]
Na/K ATPase
  Na/K ATPase activity in erythrocytes: stimulate Na/K ATPase

## NCCc1ccc(O)c(O)c1 [dopamine]
Na/K ATPase
  effect of hormones on Na/K ATPase activity: had no effect on Na/K ATPase activity

## OCCN(CCO)c1nc(N2CCCCC2)c2nc(N(CCO)CCO)nc(N3CCCCC3)c2n1 [dipyridamole]
Na/K ATPase; dipyridamole 1 mM (FIG. 6)
  effect of equilibrative nucleoside transport inhibitor on adenosine stimulation of Na/K ATPase: blocked adenosine stimulation of Na/K ATPase
Na/K ATPase
  effect of equilibrative nucleoside transport inhibitor on purine stimulation of Na/K ATPase: blocked stimulation of Na/K ATPase by any of the five purines tested

## O=c1[nH]cnc2nc[nH]c12 [hypoxanthine]
Na/K ATPase
  Na/K ATPase stimulatory activity of adenosine analogs and metabolites: little or no Na/K ATPase stimulatory activity
  effect of phosphate analogs and bases on Na/K ATPase: None of the purine analogs significantly affected Na/K ATPase

## Nc1ncnc2c1ncn2[C@@H]1O[C@H](COP(=O)(O)OP(=O)(O)OP(=O)(O)O)[C@@H](O)[C@H]1O [ATP]
Na/K ATPase
  Na/K ATPase stimulatory activity of adenosine analogs and metabolites: little or no Na/K ATPase stimulatory activity

## Nc1nc2nc[nH]c2c(=O)[nH]1 [guanine]
Na/K ATPase
  effect of phosphate analogs and bases on Na/K ATPase: None of the purine analogs significantly affected Na/K ATPase

## Nc1ncnc2c1ncn2[C@H]1C[C@H](O)[C@@H](CO)O1 [deoxyadenosine]
Na/K ATPase
  relative effectiveness at stimulating Na/K ATPase: less effective than guanosine and inosine, but more effective than deoxyguanosine
  stimulation of Na/K ATPase: stimulated Na/K ATPase in a dose-dependent manner
  stimulation of Na/K ATPase in the presence of ouabain: overcame partial inhibition by ouabain

## NC[C@H](O)c1ccc(O)c(O)c1 [norepinephrine]
Na/K ATPase
  effect of hormones on Na/K ATPase activity: had no effect on Na/K ATPase activity

## Nc1nc2c(ncn2[C@H]2C[C@H](O)[C@@H](CO)O2)c(=O)[nH]1 [deoxyguanosine]
Na/K ATPase
  stimulation of Na/K ATPase: stimulated Na/K ATPase in a dose-dependent manner
  stimulation of Na/K ATPase in the presence of ouabain: overcame partial inhibition by ouabain

## Nc1nc2c(ncn2[C@@H]2O[C@H](CO)[C@@H](O)[C@H]2O)c(=S)[nH]1 [6-thioguanosine]
Na/K ATPase
  Na/K ATPase activity in erythrocytes: stimulate Na/K ATPase

## O=[N+]([O-])c1ccc(CSc2ncnc3c2ncn3[C@@H]2O[C@H](CO)[C@@H](O)[C@H]2O)cc1 [NBTI, S-(4-nitrobenzyl)-6-thioinosine]
Na/K ATPase
  effect of equilibrative nucleoside transport inhibitor on purine stimulation of Na/K ATPase: blocked stimulation of Na/K ATPase by any of the five purines tested

## N[C@@H](Cc1cc(I)c(Oc2cc(I)c(O)c(I)c2)c(I)c1)C(=O)O [thyroxine]
Na/K ATPase
  effect of hormones on Na/K ATPase activity: had no effect on Na/K ATPase activity

## Nc1nc2c(ncn2[C@@H]2O[C@H](CO)[C@@H](O)[C@H]2O)c(=O)[nH]1 [guanosine]
[1]; 2.5 mM in saline
  bradycardia on resuscitation from hemorrhagic shock: did not cause the bradycardia
  time to 50% mortality: sooner than with inosine
  time to 100% mortality: 200 min
  effect on shock-elevated plasma K^+: lowered the shock-elevated plasma K^+
  Plasma K^+ 0.5 hr after Resuscitation: 3.01 ± 0.15 mM
[1]; rat, in vivo
  adverse effects on resuscitation from hemorrhagic shock: without any adverse effects
[1]
  survival compared to saline and cytidine controls (Kaplan-Meier): survived significantly longer than saline or cytidine controls; also recorded: significantly increased survival; also recorded: survived significantly longer
Na/K ATPase
  relative effectiveness at stimulating Na/K ATPase: both equally effective
  stimulation of Na/K ATPase: stimulated Na/K ATPase in a dose-dependent manner
  stimulation of Na/K ATPase in the presence of ouabain: overcame partial inhibition by ouabain

## Nc1ncnc2c1ncn2[C@@H]1O[C@H](CO)[C@@H](O)[C@H]1O [adenosine]
[2]; 1 hr after resuscitation, 0.5 mM
  plasma K after resuscitation: recovery of plasma K to prehemorrhage levels by 1 hr
[2]; at about 70 minutes after resuscitation, 0.5 mM
  survival: 100%
[2]; at about 160 minutes, 0.5 mM
  survival: about 25%
[2]; from 70 to 120 minutes, 0.5 mM
  survival: 85%
[2]; shocked rats, 0.5 mM infusion (about 3 to 4.5 mg/kg)
  bradycardia: caused bradycardia
[2]; single dose 0.5 mM in saline, infusion volume equal to blood lost, p<0.01
  survival compared to saline alone (Kaplan-Meier): significantly prolonged survival
[1]; 2.5 mM in saline
  effect on shock-elevated plasma K^+: lowered the shock-elevated plasma K^+
  Plasma K^+ 0.5 hr after Resuscitation: 3.10 ± 0.20 mM
[1]
  survival compared to saline and cytidine controls (Kaplan-Meier): survived significantly longer than saline or cytidine controls; also recorded: significantly increased survival; also recorded: survived significantly longer
Na/K ATPase
  relative effectiveness at stimulating Na/K ATPase: more effective at stimulating Na/K ATPase than guanosine and inosine
  stimulation of Na/K ATPase: stimulated Na/K ATPase in a dose-dependent manner
  stimulation of Na/K ATPase in the presence of ouabain: this stimulation occurs even in the presence of ouabain

## Cc1cn([C@H]2C[C@H](O)[C@@H](CO)O2)c(=O)[nH]c1=O [thymidine]
Na/K ATPase
  effect of pyrimidines on Na/K ATPase: had no effect in the assay

## O=c1[nH]c(=O)c2[nH]c(=O)[nH]c2[nH]1 [uric acid]
Na/K ATPase
  Na/K ATPase stimulatory activity of adenosine analogs and metabolites: little or no Na/K ATPase stimulatory activity

## Insulin
Na/K ATPase
  effect of hormones on Na/K ATPase activity: had no effect on Na/K ATPase activity

## CNC[C@H](O)c1ccc(O)c(O)c1 [epinephrine]
Na/K ATPase
  effect of hormones on Na/K ATPase activity: had no effect on Na/K ATPase activity

## Cn1c(=O)c2[nH]cnc2n(C)c1=O [aminophylline]
Na/K ATPase
  effect of adenosine-receptor blocker on stimulation of Na/K ATPase by inosine, adenosine, guanosine, deoxyadenosine or deoxyguanosine: Neither of these adenosine-receptor blockers had a significant effect on stimulation of Na/K ATPase
  effect of adenosine-receptor blocker on adenosine stimulation of Na/K ATPase: did not affect the ability of adenosine to stimulate Na/K ATPase
